Results taken from patent US10206937B2, “Boronic acid derivatives and therapeutic uses thereof” (Qpex Biopharma, Inc., priority 2014, dated 2019).

Assays:
NDM-1 [1] = molecular target: T1, NDM-1 (Klebsiella pneumoniae, UniProt C7C422); assay: biochemical; details: cleavage of imipenem (100 uM) by NDM-1; read-out: Ki, Imipenem
VIM-1 = molecular target: T2, VIM-1 (Pseudomonas aeruginosa, UniProt A0A0F7KYQ8); assay: biochemical; details: cleavage of nitrocefin (200 uM) by VIM-1 supernatant
T2 construct: made in house; host or cells: ECM6711 strain carrying pUCP24-VIM-1 plasmid; culture supernatant used unpurified

NDM-1 [2] = molecular target: T1, NDM-1; assay: Inhibition of purified class B carbapenemase NDM-1 (Ki, imipenem substrate); format: biochemical; details: NDM-1, substrate imipenem; read-out: Ki NDM-1, Imipenem
[3] = molecular target: purified class A, C and D enzymes (Enterobacter cloacae, UniProt P05364); format: biochemical; details: purified P99/AmpC of ECL; nitrocefin reporter substrate
[4] = molecular target: purified class A, C and D enzymes (Escherichia coli, UniProt Q9L5C7); format: biochemical; details: purified CTX-M-14; nitrocefin reporter substrate
[5] = molecular target: T3, purified class A, C and D enzymes (UniProt P0AD64, L31Q/G234S/E235K, species not given); format: biochemical; details: read-out: Ki (SHV-12, NCF); purified SHV-12; nitrocefin reporter substrate
T3 construct: Ki (SHV-12, NCF); other: purified SHV-12; nitrocefin reporter substrate
T3 sequence (P0AD64 1-286 L31Q/G234S/E235K): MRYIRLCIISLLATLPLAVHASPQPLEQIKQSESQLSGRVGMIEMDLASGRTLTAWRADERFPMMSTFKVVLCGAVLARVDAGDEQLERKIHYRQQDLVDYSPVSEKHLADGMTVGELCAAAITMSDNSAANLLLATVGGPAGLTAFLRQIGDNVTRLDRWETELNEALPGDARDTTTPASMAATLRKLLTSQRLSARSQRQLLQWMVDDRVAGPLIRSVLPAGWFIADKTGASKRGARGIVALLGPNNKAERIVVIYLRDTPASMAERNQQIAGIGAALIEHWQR

[6] = molecular target: T4, purified class A, C and D enzymes (UniProt Q6XEC0); format: biochemical; details: read-out: Ki (OXA-48, NCF); purified OXA-48; nitrocefin reporter substrate
T4 construct: rows headed: Ki (OXA-48, NCF); other: purified OXA-48; nitrocefin reporter substrate

[7] = molecular target: T5, purified class A, C and D enzymes (UniProt Q9F663); format: biochemical; details: read-out: Ki (KPC-2, NCF); purified KPC-2; nitrocefin reporter substrate
T5 construct: rows headed: Ki (KPC-2, NCF); other: purified KPC-2; nitrocefin reporter substrate

T1 sequence (C7C422 29-270, looked up, species assumed): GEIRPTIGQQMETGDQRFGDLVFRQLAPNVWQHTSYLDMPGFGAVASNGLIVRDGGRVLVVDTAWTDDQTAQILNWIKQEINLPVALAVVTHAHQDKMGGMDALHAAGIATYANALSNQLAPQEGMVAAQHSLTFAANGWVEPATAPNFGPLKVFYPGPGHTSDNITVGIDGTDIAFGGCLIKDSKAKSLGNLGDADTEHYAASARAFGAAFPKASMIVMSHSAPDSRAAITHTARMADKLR
Chain of purified class A, C and D enzymes (Enterobacter cloacae, UniProt P05364) (P05364 21-381): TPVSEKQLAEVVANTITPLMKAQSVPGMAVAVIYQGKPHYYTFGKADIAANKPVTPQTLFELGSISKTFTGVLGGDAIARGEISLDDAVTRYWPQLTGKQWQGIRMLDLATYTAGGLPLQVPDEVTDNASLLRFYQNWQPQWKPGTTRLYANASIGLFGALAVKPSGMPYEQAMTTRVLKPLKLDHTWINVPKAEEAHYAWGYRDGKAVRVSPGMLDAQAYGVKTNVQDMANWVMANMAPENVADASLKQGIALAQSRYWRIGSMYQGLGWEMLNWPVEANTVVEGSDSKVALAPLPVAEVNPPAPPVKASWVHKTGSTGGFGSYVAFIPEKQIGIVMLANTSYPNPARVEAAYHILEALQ
Chain of purified class A, C and D enzymes (Escherichia coli, UniProt Q9L5C7) (Q9L5C7 entry or part of it): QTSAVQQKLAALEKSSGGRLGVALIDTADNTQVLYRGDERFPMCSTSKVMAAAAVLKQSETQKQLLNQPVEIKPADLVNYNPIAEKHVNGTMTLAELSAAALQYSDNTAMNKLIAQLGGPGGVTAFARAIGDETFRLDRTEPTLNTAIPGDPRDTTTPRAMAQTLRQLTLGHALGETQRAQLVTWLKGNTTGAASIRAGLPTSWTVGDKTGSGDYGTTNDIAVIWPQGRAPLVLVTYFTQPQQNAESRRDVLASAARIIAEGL

## COc1ccc2c(c1C(=O)O)OB(O)[C@@H](Sc1nnc(NC(CN)CN)s1)C2 [Compound 102, (3R)-3-[[5-[[2-amino-1-(aminomethyl)ethyl]amino]-1,3,4-thiadiazol-2-yl]sulfanyl]-2-hydroxy-7-methoxy-3,4-dihydro-1,2-benzoxaborinine-8-carboxylic acid]
NDM-1 [1]
  Ki: < 10 nM
VIM-1
  IC50: < 1000 nM
NDM-1 [2]
  Ki: < 10 nM
[3]
  Ki (P99/AmpC of ECL, NCF): Z (Greater than 1 μM)
[4]
  Ki (CTX-M-14, NCF): X (Less than 0.1 μM)
[5]
  Ki: < 100 nM
[6]
  Ki: 100 to 1000 nM
[7]
  Ki: > 1000 nM

## COc1c(Cl)cc2c(c1C(=O)O)OB(O)[C@@H](Sc1nnc(N)s1)C2 [Compound 42, (R)-3-(5-amino-1,3,4-thiadiazol-2-ylthio)-6-chloro-2-hydroxy-7-methoxy-3,4-dihydro-2H-benzo[e][1,2]oxaborinine-8-carboxylic acid]
NDM-1 [1]
  Ki: < 10 nM
VIM-1
  IC50: < 1000 nM
NDM-1 [2]
  Ki: < 10 nM
[3]
  Ki (P99/AmpC of ECL, NCF): Y (0.1 μM to 1 μM)
[4]
  Ki (CTX-M-14, NCF): X (Less than 0.1 μM)
[5]
  Ki: < 100 nM
[6]
  Ki: < 100 nM
[7]
  Ki: 100 to 1000 nM

## COc1ccc2c(c1C(=O)O)OB(O)[C@@H](Sc1nnc(SC(CN)CN)s1)C2 [Compound 109, (3R)-3-[[5-[2-amino-1-(aminomethyl)ethyl]sulfanyl-1,3,4-thiadiazol-2-yl]sulfanyl]-2-hydroxy-7-methoxy-3,4-dihydro-1,2-benzoxaborinine-8-carboxylic acid]
NDM-1 [1]
  Ki: < 10 nM
VIM-1
  IC50: < 1000 nM
NDM-1 [2]
  Ki: < 10 nM
[3]
  Ki (P99/AmpC of ECL, NCF): Y (0.1 μM to 1 μM)
[4]
  Ki (CTX-M-14, NCF): X (Less than 0.1 μM)
[5]
  Ki: < 100 nM
[6]
  Ki: < 100 nM
[7]
  Ki: 100 to 1000 nM

## Nc1nnc(S[C@H]2Cc3ccc(OCC(=O)NC4CNC4)c(C(=O)O)c3OB2O)s1 [Compound 81, (3R)-3-[(5-amino-1,3,4-thiadiazol-2-yl)sulfanyl]-7-[2-(azetidin-3-ylamino)-2-oxo-ethoxy]-2-hydroxy-3,4-dihydro-1,2-benzoxaborinine-8-carboxylic acid]
NDM-1 [1]
  Ki: > 100 nM
VIM-1
  IC50: ≥ 1000 nM
NDM-1 [2]
  Ki: > 100 nM
[3]
  Ki (P99/AmpC of ECL, NCF): Y (0.1 μM to 1 μM)
[4]
  Ki (CTX-M-14, NCF): X (Less than 0.1 μM)
[5]
  Ki: < 100 nM
[6]
  Ki: < 100 nM
[7]
  Ki: > 1000 nM

## O=C(O)c1c(OCC(F)F)ccc2c1OB(O)[C@@H](Sc1nncs1)C2 [Compound 91, (3R)-7-(2,2-difluoroethoxy)-2-hydroxy-3-(1,3,4-thiadiazol-2-ylsulfanyl)-3,4-dihydro-1,2-benzoxaborinine-8-carboxylic acid]
NDM-1 [1]
  Ki: 10 to 100 nM
VIM-1
  IC50: < 1000 nM
NDM-1 [2]
  Ki: 10 to 100 nM
[3]
  Ki (P99/AmpC of ECL, NCF): Y (0.1 μM to 1 μM)
[4]
  Ki (CTX-M-14, NCF): X (Less than 0.1 μM)
[5]
  Ki: < 100 nM
[6]
  Ki: < 100 nM
[7]
  Ki: 100 to 1000 nM

## COCCOc1ccc2c(c1C(=O)O)OB(O)[C@@H](Sc1nncs1)C2 [Compound 89, (3R)-2-hydroxy-7-(2-methoxyethoxy)-3-(1,3,4-thiadiazol-2-ylsulfanyl)-3,4-dihydro-1,2-benzoxaborinine-8-carboxylic acid]
NDM-1 [1]
  Ki: 10 to 100 nM
VIM-1
  IC50: < 1000 nM
NDM-1 [2]
  Ki: 10 to 100 nM
[3]
  Ki (P99/AmpC of ECL, NCF): Z (Greater than 1 μM)
[4]
  Ki (CTX-M-14, NCF): X (Less than 0.1 μM)
[5]
  Ki: < 100 nM
[6]
  Ki: < 100 nM
[7]
  Ki: 100 to 1000 nM

## COc1ccc2c(c1C(=O)O)OB(O)[C@@H](Sc1nnc(N(CCN)CCN)s1)C2 [Compound 101, (3R)-3-[[5-[bis(2-aminoethyl)amino]-1,3,4-thiadiazol-2-yl]sulfanyl]-2-hydroxy-7-methoxy-3,4-dihydro-1,2-benzoxaborinine-8-carboxylic acid]
NDM-1 [1]
  Ki: < 10 nM
VIM-1
  IC50: < 1000 nM
NDM-1 [2]
  Ki: < 10 nM
[3]
  Ki (P99/AmpC of ECL, NCF): Z (Greater than 1 μM)
[4]
  Ki (CTX-M-14, NCF): X (Less than 0.1 μM)
[5]
  Ki: < 100 nM
[6]
  Ki: < 100 nM
[7]
  Ki: 100 to 1000 nM

## COc1ccc2c(c1C(=O)O)OB(O)[C@@H](Sc1nnc(SC3CNC3)s1)C2 [Compound 108, (3R)-3-[[5-(azetidin-3-ylsulfanyl)-1,3,4-thiadiazol-2-yl]sulfanyl]-2-hydroxy-7-methoxy-3,4-dihydro-1,2-benzoxaborinine-8-carboxylic acid]
NDM-1 [1]
  Ki: 10 to 100 nM
VIM-1
  IC50: < 1000 nM
NDM-1 [2]
  Ki: 10 to 100 nM
[3]
  Ki (P99/AmpC of ECL, NCF): Y (0.1 μM to 1 μM)
[4]
  Ki (CTX-M-14, NCF): X (Less than 0.1 μM)
[5]
  Ki: < 100 nM
[6]
  Ki: < 100 nM
[7]
  Ki: 100 to 1000 nM

## O=C(O)c1c(F)ccc2c1OB(O)[C@@H](SC1CNC1)C2 [Compound 46, (R)-3-(azetidin-3-ylthio)-7-fluoro-2-hydroxy-3,4-dihydro-2H-benzo[e][1,2]oxaborinine-8-carboxylic acid]
NDM-1 [1]
  Ki: > 100 nM
VIM-1
  IC50: ≥ 1000 nM
NDM-1 [2]
  Ki: > 100 nM
[3]
  Ki (P99/AmpC of ECL, NCF): Z (Greater than 1 μM)
[4]
  Ki (CTX-M-14, NCF): X (Less than 0.1 μM)
[5]
  Ki: < 100 nM
[6]
  Ki: < 100 nM
[7]
  Ki: 100 to 1000 nM

## COc1ccc2c(c1C(=O)O)OB(O)[C@@H](Sc1nnc(SCCN3CCNCC3)s1)C2 [Compound 68, (3R)-2-hydroxy-7-methoxy-3-[[5-(2-piperazin-1-ylethylsulfanyl)-1,3,4-thiadiazol-2-yl]sulfanyl]-3,4-dihydro-1,2-benzoxaborinine-8-carboxylic acid]
NDM-1 [1]
  Ki: > 100 nM
VIM-1
  IC50: < 1000 nM
NDM-1 [2]
  Ki: > 100 nM
[3]
  Ki (P99/AmpC of ECL, NCF): Y (0.1 μM to 1 μM)
[4]
  Ki (CTX-M-14, NCF): X (Less than 0.1 μM)
[5]
  Ki: < 100 nM
[6]
  Ki: < 100 nM
[7]
  Ki: 100 to 1000 nM

## O=C(O)c1c(F)ccc2c1OB(O)[C@@H](Sc1nnc(C(F)(F)F)s1)C2 [Compound 55, (3R)-7-fluoro-2-hydroxy-3-[[5-(trifluoromethyl)-1,3,4-thiadiazol-2-yl]sulfanyl]-3,4-dihydro-1,2-benzoxaborinine-8-carboxylic acid]
NDM-1 [1]
  Ki: > 100 nM
VIM-1
  IC50: ≥ 1000 nM
NDM-1 [2]
  Ki: > 100 nM
[3]
  Ki (P99/AmpC of ECL, NCF): Y (0.1 μM to 1 μM)
[4]
  Ki (CTX-M-14, NCF): Y (0.1 μM to 1 μM)
[5]
  Ki: 100 to 1000 nM
[6]
  Ki: < 100 nM
[7]
  Ki: 100 to 1000 nM

## COc1ccc2c(c1C(=O)O)OB(O)[C@@H](Sc1nnc(Sc3nnc(N)s3)s1)C2 [Compound 111, (3R)-3-[[5-[(5-amino-1,3,4-thiadiazol-2-yl)sulfanyl]-1,3,4-thiadiazol-2-yl]sulfanyl]-2-hydroxy-7-methoxy-3,4-dihydro-1,2-benzoxaborinine-8-carboxylic acid]
NDM-1 [1]
  Ki: > 100 nM
VIM-1
  IC50: < 1000 nM
NDM-1 [2]
  Ki: > 100 nM
[3]
  Ki (P99/AmpC of ECL, NCF): Y (0.1 μM to 1 μM)
[4]
  Ki (CTX-M-14, NCF): X (Less than 0.1 μM)
[5]
  Ki: < 100 nM
[6]
  Ki: > 1000 nM
[7]
  Ki: 100 to 1000 nM

## NC(=O)c1cnc(S[C@H]2Cc3ccc(F)c(C(=O)O)c3OB2O)s1 [Compound 53, (3R)-3-(5-carbamoylthiazol-2-yl)sulfanyl-7-fluoro-2-hydroxy-3,4-dihydro-1,2-benzoxaborinine-8-carboxylic acid]
NDM-1 [1]
  Ki: > 100 nM
VIM-1
  IC50: < 1000 nM
NDM-1 [2]
  Ki: > 100 nM
[3]
  Ki (P99/AmpC of ECL, NCF): Y (0.1 μM to 1 μM)
[4]
  Ki (CTX-M-14, NCF): X (Less than 0.1 μM)
[5]
  Ki: < 100 nM
[6]
  Ki: < 100 nM
[7]
  Ki: < 100 nM

## COc1ccc2c(c1C(=O)O)OB(O)[C@@H](Sc1nc(C(N)=O)cs1)C2 [Compound 61, (3R)-3-(4-carbamoylthiazol-2-yl)sulfanyl-2-hydroxy-7-methoxy-3,4-dihydro-1,2-benzoxaborinine-8-carboxylic acid]
NDM-1 [1]
  Ki: > 100 nM
VIM-1
  IC50: < 1000 nM
NDM-1 [2]
  Ki: > 100 nM
[3]
  Ki (P99/AmpC of ECL, NCF): Y (0.1 μM to 1 μM)
[4]
  Ki (CTX-M-14, NCF): X (Less than 0.1 μM)
[5]
  Ki: < 100 nM
[6]
  Ki: < 100 nM
[7]
  Ki: < 100 nM

## COc1ccc2c(c1C(=O)O)OB(O)[C@@H](Sc1nnc(C(F)(F)F)n1N)C2 [Compound 64, (3R)-3-[[4-amino-5-(trifluoromethyl)-1,2,4-triazol-3-yl]sulfanyl]-2-hydroxy-7-methoxy-3,4-dihydro-1,2-benzoxaborinine-8-carboxylic acid]
NDM-1 [1]
  Ki: > 100 nM
VIM-1
  IC50: < 1000 nM
NDM-1 [2]
  Ki: > 100 nM
[3]
  Ki (P99/AmpC of ECL, NCF): Z (Greater than 1 μM)
[4]
  Ki (CTX-M-14, NCF): X (Less than 0.1 μM)
[5]
  Ki: < 100 nM
[6]
  Ki: < 100 nM
[7]
  Ki: 100 to 1000 nM
